Measured values reported in patent US20130197080A1, “USE OF TERIFLUNOMIDE FOR TREATING MULTIPLE SCLEROSIS” (SANOFI, priority 2010, published 2013).

Experiments:
patients with RMS [1] = test: TEMSO Phase III trial: relapses, disability progression, fatigue; type: in vivo, humans; conditions: for Hazard ratio for teriflunomide vs placebo (12-week sustained disability progression) / Hazard ratio for teriflunomide vs placebo (relapse): Cox model; for Patients with a 12-week sustained disability progression / Patients without relapse during 108 weeks: Kaplan-Meier estimate; for Fatigue Impact scale score, LS mean change from baseline: MMRM
From the text: They were required to have a score of no more than 5.5 on the Kurtzke Expanded Disability Status Scale (EDSS), a minimum of two clinical relapses in the previous 2 years or one relapse during the preceding year, but no relapses in the 60 days before randomization. During the 4 weeks prior to randomization, patients were required to be clinically stable and have signed both the informed consent form and informed consent for HIV testing.
(§1) A treatment neurologist at each site was responsible for evaluating patient eligibility, supervision of study medication administration, recording and treating adverse events and assessing relapses, and monitoring safety assessments. An independent examining neurologist, blinded to treatment assignment, performed all EDSS scores and functional system assessments. EDSS scores were determined at screening, baseline, every 12 weeks following baseline visit, and at unscheduled relapse visits. MRI scans were performed at baseline and Weeks 24, 48, 72 and 108, and conducted according to the study protocol; image data were collected at clinical site MRI facilities.
For suspected relapses occurring between study visits, patients were required to attend the study site within 7 days of symptom onset for objective assessment by the examining neurologist. Relapses could be treated with intravenous corticosteroids at the investigator's discretion.
The primary study objective was to determine the effect of teriflunomide in reducing annualized relapse rate (ARR; the number of confirmed relapses per patient-year). A relapse was defined as the appearance of a new clinical sign or symptom or clinical worsening of a previous sign or symptom that had been stable for at least 30 days and persisted for a minimum of 24 hours in the absence of fever. Confirmed relapses required an increase of 1 point in at least two functional systems, or an increase of 2 points in at least one functional system (excluding bowel/bladder and cerebral function), or an increase of 0.5 points in EDSS score (1.0 for EDSS=0) from the previous clinically stable assessment.
(§2) The key secondary endpoint was to determine the effect of teriflunomide on delaying disability progression at Week 108 as assessed by changes in EDSS. Sustained disability progression was defined as a persisting increase from baseline of at least 1.0 point on the EDSS (or at least 0.5 for patients with a baseline EDSS score greater than 5.5) for at least 12 weeks. The key prespecified MRI endpoint was the effect of teriflunomide on burden of disease (total lesion volume). Other MRI endpoints included number of gadolinium (Gd)-enhancing T1 lesions, volume of T1 hypointense lesion components (‘black holes’), number of unique active lesions and brain atrophy. Patient-reported fatigue, assessed by the Fatigue Impact Scale (FIS), was an additional secondary endpoint.
A sample size of 360 randomized patients per group was required to provide 95% statistical power to detect relative risk reductions (RRR) of 25% in ARR after 2 years, assuming a placebo ARR of 0.74 and standard deviation of 0.626. All analyses followed an intention-to-treat (ITT) principle and all inferential analyses were performed at the 2-sided 5% level of significance. ARR was analyzed using a Poisson regression model with robust error variance. The model included the total number of confirmed relapses as the response variable, and treatment, baseline EDSS strata, and region as covariates, and log transformed duration of treatment as offset variable.
Disability progression was analyzed using a log-rank test with time to first disability progression as the dependent variable, treatment as test variable, and region and baseline EDSS score as strata variables. Kaplan-Meier estimates and curves of the cumulative incidence were used to assess the rate of disability progression in patients across time points. […]

patients with RMS [2] = test: TEMSO Phase III trial: MRI outcomes; type: in vivo, humans; conditions: 108 weeks; for Brain parenchymal fraction, LS mean change from baseline / Brain parenchymal fraction, LS mean difference vs placebo / Brain parenchymal fraction, Relative reduction vs placebo: MMRM; for Number of Gd-enhancing T1 lesions per scan, Estimate / Number of unique active lesions per scan, Estimate: Poisson regression
Description: as §1, §2
Change from baseline in burden of disease and T1 hypointense lesion volume were analysed with a mixed-effect model with repeated measures (MMRM) using cubic root transformed data. Atrophy was analysed as change from baseline brain volume with the MMRM. The number of Gd-enhancing T1 lesions and number of unique active lesions per scan were analysed using a Poisson regression model with robust error variance. The percentage of patients free from lesions was analysed using a logistic regression model. MRI scans obtained within 14 days of systemic corticosteroid therapy were excluded from all analyses.
The MMRM model (mixed-effect model with repeated measures) included treatment, EDSS strata, region, visit, treatment-by-visit interaction, baseline value and baseline-by-visit interaction as covariates. The percentage of patients free from lesions was analysed by a logistic regression model that included treatment, number of lesions at baseline, EDSS strata and region as covariates. The Poisson regression model included treatment, number of lesions at baseline, EDSS strata and region as covariates, and log-transformed number of scans as an offset variable. The change from baseline in fatigue impact scale (FIS) total score was analyzed using MMRM.

[3] = 7 mg once daily oral, 108 weeks, ITT population
[4] = 7 mg once daily oral, 108 weeks, ITT population (N = 365)
[5] = 7 mg once daily oral, ITT population
[6] = 14 mg once daily oral, 108 weeks, ITT population
[7] = 14 mg once daily oral, 108 weeks, ITT population (N = 358)
[8] = 14 mg once daily oral, ITT population
[9] = 7 mg once daily oral vs placebo
[10] = 7 mg once daily oral, MMRM using cubic root transformed volume data
[11] = 14 mg once daily oral vs placebo
[12] = 14 mg once daily oral, MMRM using cubic root transformed volume data

## C/C(O)=C(\C#N)C(=O)Nc1ccc(C(F)(F)F)cc1 [teriflunomide, (Z)-2-cyano-3-hydroxy-but-2-enoic acid-(4′-trifluoromethylphenyl)-amide]
Patients with RMS [1]; [3]
  Hazard ratio for teriflunomide vs placebo (12-week sustained disability progression): 0.763
  Hazard ratio for teriflunomide vs placebo (relapse): 0.756
  Adjusted Annualized Relapse Rate: 0.370
  Hazard ratio reduction vs placebo (disability progression): 23.7%
  No. of relapses 0 - patients (%): (57.8) %
  No. of relapses 1 - patients (%): (25.2) %
  No. of relapses 2 - patients (%): (13.4) %
  No. of relapses 3 - patients (%): (2.7) %
  No. of relapses ≧4 - patients (%): (0.8) %
  Relative Reduction in Annualized Relapse rate vs placebo: 31.2%
  Patients with a 12-week sustained disability progression: 21.7%
  Fatigue Impact scale score, LS mean change from baseline: 2.3
Patients with RMS [1]; [4]
  No. of relapses 0 - no. of patients: 211
  No. of relapses 1 - no. of patients: 92
  No. of relapses 2 - no. of patients: 49
  No. of relapses 3 - no. of patients: 10
  No. of relapses ≧4 - no. of patients: 3
Patients with RMS [1]; [5]
  Patients without relapse during 108 weeks: 53.7%
Patients with RMS [1]; 14 mg group, p=0.02
  patients who discontinued treatment due to disease progression, compared with placebo: lower number
Patients with RMS [1]; [6]
  Hazard ratio for teriflunomide vs placebo (12-week sustained disability progression): 0.702
  Hazard ratio for teriflunomide vs placebo (relapse): 0.719
  Adjusted Annualized Relapse Rate: 0.369
  No. of relapses 0 - patients (%): (60.6) %
  No. of relapses 1 - patients (%): (24.0) %
  No. of relapses 2 - patients (%): (9.2) %
  No. of relapses 3 - patients (%): (4.5) %
  No. of relapses ≧4 - patients (%): (1.7) %
  Patients with a 12-week sustained disability progression: 20.2%
  Fatigue Impact scale score, LS mean change from baseline: 3.8
Patients with RMS [1]; [7]
  No. of relapses 0 - no. of patients: 217
  No. of relapses 1 - no. of patients: 86
  No. of relapses 2 - no. of patients: 33
  No. of relapses 3 - no. of patients: 16
  No. of relapses ≧4 - no. of patients: 6
Patients with RMS [1]; [8]
  Patients without relapse during 108 weeks: 56.5%
Patients with RMS [1]; all treatment groups, during the study
  Patient-reported fatigue (FIS scores): remained stable
Patients with RMS [2]; 7 mg and 14 mg groups
  brain atrophy from baseline vs placebo: No significant differences
Patients with RMS [2]; [9]
  Number of Gd-enhancing T1 lesions per scan, Relative risk: 0.428
  Number of unique active lesions per scan, Relative risk: 0.523
Patients with RMS [2]; 7 mg once daily oral
  Number of Gd-enhancing T1 lesions per scan, Relative reduction vs placebo: 57.2%
  Number of unique active lesions per scan, Relative reduction vs placebo: 47.7%
  Brain parenchymal fraction, LS mean change from baseline: −0.003
  Brain parenchymal fraction, LS mean difference vs placebo: 0.001
  Brain parenchymal fraction, Relative reduction vs placebo: 25.0%
Patients with RMS [2]; [5]
  Burden of disease, Mean change from baseline: 1.308 mL
  Proportion of patients free from Gd-enhancing T1 lesions, %: (51.4) %
  T1 hypointense lesion volume, Mean change from baseline: 0.499 mL
  Number of Gd-enhancing T1 lesions per scan, Estimate: 0.570
  Number of unique active lesions per scan, Estimate: 1.288
Patients with RMS [2]; [10]
  Burden of disease, LS mean change from baseline: 0.080 mL
  Burden of disease, LS mean difference vs placebo: -0.053 mL
  Burden of disease, Relative reduction vs placebo: 39.4%
  T1 hypointense lesion volume, LS mean change from baseline: 0.079 mL
  T1 hypointense lesion volume, LS mean difference vs placebo: -0.016 mL
  T1 hypointense lesion volume, Relative reduction vs placebo: 16.7%
Patients with RMS [2]; [11]
  Number of Gd-enhancing T1 lesions per scan, Relative risk: 0.196
  Number of unique active lesions per scan, Relative risk: 0.306
Patients with RMS [2]; [8]
  Burden of disease, Mean change from baseline: 0.723 mL
  T1 hypointense lesion volume, Mean change from baseline: 0.331 mL
  Number of Gd-enhancing T1 lesions per scan, Estimate: 0.261
  Number of unique active lesions per scan, Estimate: 0.754
Patients with RMS [2]; 14 mg once daily oral
  Brain parenchymal fraction, LS mean change from baseline: −0.003
  Brain parenchymal fraction, LS mean difference vs placebo: 0.001
  Brain parenchymal fraction, Relative reduction vs placebo: 25.0%
Patients with RMS [2]; [12]
  Burden of disease, LS mean change from baseline: 0.043 mL
  Burden of disease, LS mean difference vs placebo: -0.089 mL
  T1 hypointense lesion volume, LS mean change from baseline: 0.066 mL
  T1 hypointense lesion volume, LS mean difference vs placebo: -0.030 mL
